In patent US20110160054A1, “Pesticidal Mixtures Comprising Cyanosulfoximine Compounds and Spinetoram” (BASF SE, priority 2008, published 2011):
Read-outs that look alike come from different tables or passages of the source.

What was measured:
Type in all cases: cell-based
Settings in all cases: single compound, 7 days after inoculation
[1] = test system: Botrytis cinerea; assay: Activity against the grey mold Botrytis cinerea in the microtiterplate test (Botrci)
[2] = test system: Septoria tritici; assay: Activity against leaf blotch on wheat caused by Septoria tritici, microtiter test (Septtr)
[3] = test system: Pyricularia oryzae
[4] = test system: Phytophthora infestans

## Fc1ccc([C@]2(Cn3cncn3)O[C@H]2c2ccccc2Cl)cc1 (racemic) [Epoxiconazol, epoxiconazole]
[1]; 0.25 ppm
  Observed efficacy: 25%

## CO/C=C(/C(=O)OC)c1ccccc1Oc1cc(Oc2ccccc2C#N)ncn1 [Azoxystrobin, azoxystrobin]
[2]; 0.063 ppm
  Observed efficacy: 56%

## COC(=O)Nc1nc2ccccc2[nH]1 [Carbendazim, carbendazim]
[3]; 0.25 ppm
  Observed efficacy: 15%

## Cc1ccc(-c2c(Cl)nc(C#N)n2S(=O)(=O)N(C)C)cc1 [Cyazofamid, cyazofamid]
[4]; 0.063 ppm
  Observed efficacy: 67%

## CC1(C(=O)Nc2ccc(O)c(Cl)c2Cl)CCCCC1 [Fenhexamid, fenhexamid]
[2]; 16 ppm
  Observed efficacy: 33%

## OC(Cc1ccccc1Cl)(Cn1nc[nH]c1=S)C1(Cl)CC1 (centres unmarked) [Prothioconazol, prothioconazole]
[1]; 0.063 ppm
  Observed efficacy: 19%

## COC(=O)N(OC)c1ccccc1COc1ccn(-c2ccc(Cl)cc2)n1 [Pyraclostrobin, pyraclostrobin]
[1]; 0.25 ppm
  Observed efficacy: 4%

## CC(C)CC(C)c1sccc1NC(=O)c1cn(C)nc1C(F)(F)F (centres unmarked) [penthiopyrad]
[1]; 0.063 ppm
  Observed efficacy: 32%
[1]; 0.25 ppm
  Observed efficacy: 45%
[3]; 0.25 ppm
  Observed efficacy: 6%
[3]; 1 ppm
  Observed efficacy: 55%

## Cn1cc(C(=O)Nc2ccccc2C2CC2C2CC2)c(C(F)F)n1 (centres unmarked) [sedaxane]
[1]; 0.25 ppm
  Observed efficacy: 41%

## Spinetoram
[2]; 16 ppm
  Observed efficacy: 0%
[2]; 63 ppm
  Observed efficacy: 4%
[1]; 0.25 ppm
  Observed efficacy: 1%
[1]; 4 ppm
  Observed efficacy: 1%
[1]; 16 ppm
  Observed efficacy: 0%
[1]; 63 ppm
  Observed efficacy: 21%
[3]; 4 ppm
  Observed efficacy: 2%
[3]; 16 ppm
  Observed efficacy: 2%
[3]; 63 ppm
  Observed efficacy: 34%
[4]; 4 ppm
  Observed efficacy: 2%
[4]; 16 ppm
  Observed efficacy: 24%

## mancozeb
[1]; 16 ppm
  Observed efficacy: 46%

## propineb
[2]; 1 ppm
  Observed efficacy: 25%
[4]; 1 ppm
  Observed efficacy: 23%
